PubChem BioAssay AID2060891 (Molecular Pharmacology Branch, DTP, NCI, 2025)

Test system: K98450-129-R-PDC complex spheroid growth, percent test/control
Experiment: Anticancer human tumor K98450-129-R-PDC patient-derived colon adenocarcinoma cell line growth inhibition [RAS]
Details: for IC50: curve of first compound; for viability, T/C: stronger effect = lower value
Procedure, shortened: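 Tumour cells grown as complex spheroids with HUVEC endothelial cells and mesenchymal stem cells, treated with RAS pathway inhibitor combinations. Each agent spans half-log steps from near clinical Cmax, or 10 microM where Cmax is unknown.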

[1] = second compound 0.000949 µM, first compound 0.0316 µM
[2] = second compound 0.000949 µM, first compound 0.1 µM
[3] = second compound 0.000949 µM, first compound 0.316 µM
[4] = second compound 0.000949 µM, first compound 1 µM
[5] = second compound 0.000949 µM, first compound 3.16 µM
[6] = second compound 0.000949 µM, first compound 10 µM
[7] = second compound 0.003 µM, first compound 0.0316 µM
[8] = second compound 0.003 µM, first compound 0.1 µM
[9] = second compound 0.003 µM, first compound 0.316 µM
[10] = second compound 0.003 µM, first compound 1 µM
[11] = second compound 0.003 µM, first compound 3.16 µM
[12] = second compound 0.003 µM, first compound 10 µM
[13] = second compound 0.00949 µM, first compound 0.0316 µM
[14] = second compound 0.00949 µM, first compound 0.1 µM
[15] = second compound 0.00949 µM, first compound 0.316 µM
[16] = second compound 0.00949 µM, first compound 1 µM
[17] = second compound 0.00949 µM, first compound 3.16 µM
[18] = second compound 0.00949 µM, first compound 10 µM
[19] = second compound 0.03 µM, first compound 0.0316 µM
[20] = second compound 0.03 µM, first compound 0.1 µM
[21] = second compound 0.03 µM, first compound 0.316 µM
[22] = second compound 0.03 µM, first compound 1 µM
[23] = second compound 0.03 µM, first compound 3.16 µM
[24] = second compound 0.03 µM, first compound 10 µM
[25] = second compound 0.0949 µM, first compound 0.0316 µM
[26] = second compound 0.0949 µM, first compound 0.1 µM
[27] = second compound 0.0949 µM, first compound 0.316 µM
[28] = second compound 0.0949 µM, first compound 1 µM
[29] = second compound 0.0949 µM, first compound 3.16 µM
[30] = second compound 0.0949 µM, first compound 10 µM
[31] = second compound 0.3 µM, first compound 0.0316 µM
[32] = second compound 0.3 µM, first compound 0.1 µM
[33] = second compound 0.3 µM, first compound 0.316 µM
[34] = second compound 0.3 µM, first compound 1 µM
[35] = second compound 0.3 µM, first compound 3.16 µM
[36] = second compound 0.3 µM, first compound 10 µM
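Further: spheroids exposed to agents for seven days before the viability readout.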
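Wherever viability, T/C is given: luminescence used as a proxy for viable cell amount.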

`CC(C)NCC(C(=O)N1CCN(c2ncnc3c2C(C)CC3O)CC1)c1ccc(Cl)cc1` (stereo not drawn) + CCn1c(-c2cccnc2C(C)OC)c2c3cc(ccc31)N1CCOC(CC(NC(=O)C(C(C)C)N(C)C(=O)C3(F)CCN(C(=O)C#CC(C)(C)N(C)C)CC3)C(=O)N3CCCC(N3)C(=O)OCC(C)(C)C2)C1 was tested, and the IC50 (second compound 0.000949 µM) was > 10000 nM, the IC50 (second compound 0.003 µM) was > 10000 nM and the IC50 (second compound 0.00949 µM) was < 31.6 nM. For the same compound, the IC50 (second compound 0.03 µM) was < 31.6 nM, the IC50 (second compound 0.0949 µM) was < 31.6 nM and the IC50 (second compound 0.3 µM) was < 31.6 nM. For the same compound, the viability, T/C [1] was 64.3%, the viability, T/C [2] was 61.4% and the viability, T/C [3] was 83.3%. The viability, T/C [4] was 73.7%, the viability, T/C [5] was 73% and the viability, T/C [6] was 70.4%. The viability, T/C [7] was 68.8%, the viability, T/C [8] was 46.6% and the viability, T/C [9] was 61%. The viability, T/C [10] was 51.2%, the viability, T/C [11] was 64.1% and the viability, T/C [12] was 47%. The viability, T/C [13] was 45.4%, the viability, T/C [14] was 37.7% and the viability, T/C [15] was 42.9%. The viability, T/C [16] was 34.6%, the viability, T/C [17] was 50.8% and the viability, T/C [18] was 39.6%. The viability, T/C [19] was 33%, the viability, T/C [20] was 39% and the viability, T/C [21] was 36.8%. For the same compound, the viability, T/C [22] was 34%, the viability, T/C [23] was 38.1% and the viability, T/C [24] was 35%. For the same compound, the viability, T/C [25] was 32.4%, the viability, T/C [26] was 42.1% and the viability, T/C [27] was 34.7%. It also gave a viability, T/C [28] of 36.4%, a viability, T/C [29] of 36% and a viability, T/C [30] of 34.5%. It also gave a viability, T/C [31] of 31.6%, a viability, T/C [32] of 38.5% and a viability, T/C [33] of 34.4%. For the same compound, the viability, T/C [34] was 32.6%, the viability, T/C [35] was 33.7% and the viability, T/C [36] was 32.2%.
`CC(C)n1nc(-c2ccc3oc(N)nc3c2)c2c(N)ncnc21` + CCn1c(-c2cccnc2C(C)OC)c2c3cc(ccc31)N1CCOC(CC(NC(=O)C(C(C)C)N(C)C(=O)C3(F)CCN(C(=O)C#CC(C)(C)N(C)C)CC3)C(=O)N3CCCC(N3)C(=O)OCC(C)(C)C2)C1 was tested, and the IC50 (second compound 0.000949 µM) was 46.3 nM, the IC50 (second compound 0.003 µM) was 2.56 nM and the IC50 (second compound 0.00949 µM) was 0.449 nM. For the same compound, the IC50 (second compound 0.03 µM) was < 0.316 nM, the IC50 (second compound 0.0949 µM) was < 0.316 nM and the IC50 (second compound 0.3 µM) was < 0.316 nM. The viability, T/C (second compound 0.000949 µM, first compound 0.000316 µM) was 58%, the viability, T/C (second compound 0.000949 µM, first compound 0.001 µM) was 66.9% and the viability, T/C (second compound 0.000949 µM, first compound 0.00316 µM) was 65.7%. For the same compound, the viability, T/C (second compound 0.000949 µM, first compound 0.01 µM) was 63.2%, the viability, T/C [1] was 50.5% and the viability, T/C [2] was 41.8%. It also gave a viability, T/C (second compound 0.003 µM, first compound 0.000316 µM) of 58.5%, a viability, T/C (second compound 0.003 µM, first compound 0.001 µM) of 53.4% and a viability, T/C (second compound 0.003 µM, first compound 0.00316 µM) of 53%. The viability, T/C (second compound 0.003 µM, first compound 0.01 µM) was 38.5%, the viability, T/C [7] was 40.6% and the viability, T/C [8] was 31.9%. It also gave a viability, T/C (second compound 0.00949 µM, first compound 0.000316 µM) of 52.1%, a viability, T/C (second compound 0.00949 µM, first compound 0.001 µM) of 46% and a viability, T/C (second compound 0.00949 µM, first compound 0.00316 µM) of 34.8%. It also gave a viability, T/C (second compound 0.00949 µM, first compound 0.01 µM) of 33.3%, a viability, T/C [13] of 30.5% and a viability, T/C [14] of 28.9%. For the same compound, the viability, T/C (second compound 0.03 µM, first compound 0.000316 µM) was 35.2%, the viability, T/C (second compound 0.03 µM, first compound 0.001 µM) was 40% and the viability, T/C (second compound 0.03 µM, first compound 0.00316 µM) was 36.5%. For the same compound, the viability, T/C (second compound 0.03 µM, first compound 0.01 µM) was 23.9%, the viability, T/C [19] was 29.1% and the viability, T/C [20] was 25.6%. The viability, T/C (second compound 0.0949 µM, first compound 0.000316 µM) was 34.3%, the viability, T/C (second compound 0.0949 µM, first compound 0.001 µM) was 32% and the viability, T/C (second compound 0.0949 µM, first compound 0.00316 µM) was 32.6%. For the same compound, the viability, T/C (second compound 0.0949 µM, first compound 0.01 µM) was 28.6%, the viability, T/C [25] was 30.6% and the viability, T/C [26] was 22.7%. For the same compound, the viability, T/C (second compound 0.3 µM, first compound 0.000316 µM) was 29.4%, the viability, T/C (second compound 0.3 µM, first compound 0.001 µM) was 35% and the viability, T/C (second compound 0.3 µM, first compound 0.00316 µM) was 30.1%. It also gave a viability, T/C (second compound 0.3 µM, first compound 0.01 µM) of 27.5%, a viability, T/C [31] of 25.9% and a viability, T/C [32] of 23.7%.
In the case of `CC(Nc1ccc2c(c1)OCCn1cc(N3C(=O)OCC3C(F)F)nc1-2)C(N)=O` (stereo not drawn) + CCn1c(-c2cccnc2C(C)OC)c2c3cc(ccc31)N1CCOC(CC(NC(=O)C(C(C)C)N(C)C(=O)C3(F)CCN(C(=O)C#CC(C)(C)N(C)C)CC3)C(=O)N3CCCC(N3)C(=O)OCC(C)(C)C2)C1, the IC50 (second compound 0.000949 µM) is reported as > 10000 nM, the IC50 (second compound 0.003 µM) is reported as 829 nM and the IC50 (second compound 0.00949 µM) is reported as < 31.6 nM. For the same compound, the IC50 (second compound 0.03 µM) was < 31.6 nM, the IC50 (second compound 0.0949 µM) was < 31.6 nM and the IC50 (second compound 0.3 µM) was < 31.6 nM. It also gave a viability, T/C [1] of 77.4%, a viability, T/C [2] of 70.5% and a viability, T/C [3] of 72.1%. The viability, T/C [4] was 60.8%, the viability, T/C [5] was 71.5% and the viability, T/C [6] was 51.3%. It also gave a viability, T/C [7] of 57.7%, a viability, T/C [8] of 60.8% and a viability, T/C [9] of 51.5%. It also gave a viability, T/C [10] of 45.2%, a viability, T/C [11] of 48.9% and a viability, T/C [12] of 34.7%. The viability, T/C [13] was 46.6%, the viability, T/C [14] was 34.3% and the viability, T/C [15] was 35.8%. The viability, T/C [16] was 26.9%, the viability, T/C [17] was 37.2% and the viability, T/C [18] was 23%. The viability, T/C [19] was 37.9%, the viability, T/C [20] was 38.6% and the viability, T/C [21] was 32.4%. The viability, T/C [22] was 25%, the viability, T/C [23] was 27.3% and the viability, T/C [24] was 21.8%. For the same compound, the viability, T/C [25] was 34.4%, the viability, T/C [26] was 29.4% and the viability, T/C [27] was 29.9%. For the same compound, the viability, T/C [28] was 24.2%, the viability, T/C [29] was 24% and the viability, T/C [30] was 19.4%. The viability, T/C [31] was 34.6%, the viability, T/C [32] was 27% and the viability, T/C [33] was 31.1%. The viability, T/C [34] was 23.6%, the viability, T/C [35] was 27.5% and the viability, T/C [36] was 18.9%.
With `C[C@@H](NC(=O)c1ncnc(N)c1Cl)c1ncc(C(=O)Nc2cc(C(F)(F)F)c(Cl)cn2)s1` + CCn1c(-c2cccnc2C(C)OC)c2c3cc(ccc31)N1CCOC(CC(NC(=O)C(C(C)C)N(C)C(=O)C3(F)CCN(C(=O)C#CC(C)(C)N(C)C)CC3)C(=O)N3CCCC(N3)C(=O)OCC(C)(C)C2)C1 the IC50 (second compound 0.000949 µM) was > 10000 nM, the IC50 (second compound 0.003 µM) was > 10000 nM and the IC50 (second compound 0.00949 µM) was > 10000 nM. The IC50 (second compound 0.03 µM) was < 31.6 nM, the IC50 (second compound 0.0949 µM) was < 31.6 nM and the IC50 (second compound 0.3 µM) was < 31.6 nM. The viability, T/C [1] was 87.9%, the viability, T/C [2] was 87.2% and the viability, T/C [3] was 87%. The viability, T/C [4] was 70.2%, the viability, T/C [5] was 54.4% and the viability, T/C [6] was 61.5%. For the same compound, the viability, T/C [7] was 57.9%, the viability, T/C [8] was 64.3% and the viability, T/C [9] was 63.5%. For the same compound, the viability, T/C [10] was 61.6%, the viability, T/C [11] was 66.2% and the viability, T/C [12] was 53.7%. It also gave a viability, T/C [13] of 57.8%, a viability, T/C [14] of 55% and a viability, T/C [15] of 54.5%. It also gave a viability, T/C [16] of 55.3%, a viability, T/C [17] of 59.2% and a viability, T/C [18] of 48.6%. For the same compound, the viability, T/C [19] was 40.3%, the viability, T/C [20] was 44.5% and the viability, T/C [21] was 53.6%. The viability, T/C [22] was 61.6%, the viability, T/C [23] was 54.1% and the viability, T/C [24] was 46.9%. It also gave a viability, T/C [25] of 39.2%, a viability, T/C [26] of 40.5% and a viability, T/C [27] of 53.3%. It also gave a viability, T/C [28] of 55%, a viability, T/C [29] of 62.3% and a viability, T/C [30] of 49.9%. It also gave a viability, T/C [31] of 32.4%, a viability, T/C [32] of 43.9% and a viability, T/C [33] of 35.2%. It also gave a viability, T/C [34] of 53.7%, a viability, T/C [35] of 56.3% and a viability, T/C [36] of 39.3%.
